Test results reported in patent US9880151B2, “Method of determining, identifying or isolating cell-penetrating peptides” (Phylogica Limited, priority 2011, dated 2018).

Experiments:
[1] = test system: CHO-K1 cells; assay: Flow cytometry analysis of FITC-labelled peptide cell binding/uptake; format: cell-based, Chinese hamster; conditions: for cellular uptake into CHO-K1: 37° C. and 4° C. (FIG. 34); for cellular uptake into CHO-K1 cells measured using FITC: FIG. 36
Experimental: (§1) CHO-K1 and bEnd.3 cells were seeded in 6-well plates at 5×10^5 cells/well in culture medium and incubated for 24 h at 37° C. in 5% CO2. Culture media was aspirated, and cells washed once with PBS to remove debris. Then, 1 mL of media containing 10 or 20 μM of FITC-peptide was added to wells, and plates were incubated for 1 h at 37° C. in 5% CO2. The cells were washed twice with 1×PBS, and 1 mL of 0.25% trypsin/EDTA added per well, and incubated at 37° C. for 4 min. Reactions were stopped by dilution of trypsin with 2 mL complete media. Cells were dislodged by gentle titration and transferred to flow cytometry tubes, washed twice with FACS buffer (0.5% BSA/0.01% NaN3/PBS), collected by centrifugation for 4 min at 1500 rpm, and resuspended in 0.3 mL fixing buffer solution (1% formaldehyde in PBS). Cells were filtered through gauze before reading on BD LSRII flow cytometer.
(§2) Cells were seeded in 6-well plates and then grown for 24 hours before peptide was added for 1 hour at 37° C. Cells were harvested via trypsinization, and then assayed for peptide internalization/binding by flow cytometry.
(§3) The flow cytometry procedure was initially optimized using fluorophore-labelled TAT-PYC38. Subsequently, FITC-labelled peptides from the Phase 1-Pilot and Phase 2-CPP screens were assessed at 10 μM concentrations for internalization using CHO and bEnd3 cells. Peptides that scored as positive in the cell binding/internalization assay were subjected to further analysis using different temperatures and cell lines to determine cell selectivity. The cell-binding/uptake activity of pure (>85% purity) and Pepset (purity ranges from 40-80%) peptides was also compared to determine whether peptide purity affected CPP activity.

[2] = test system: bEnd.3 mouse brain endothelial cells; assay: Fluorescent microscopy assessment of CPP internalisation; format: cell-based; conditions: 10 μM, CM and SF (FIGS. 25-28)
Experimental: (§4) CHO-K1 cells are seeded at 70,000 cells/slide chamber, and bEnd.3 cells are seeded at 40,000 cells/slide chamber. Cells are cultured for 24 h at 37° C. in 5% CO2, washed with PBS 1×, and FITC-labeled peptide (10 uM) is added to cells in 10% FBS (CM).
(§5) Alternatively, cells in serum-free (SF) medium are incubated for 1 h at 37° C., washed twice in PBS, fixed in 10% formaladehyde/PBS (15 min at RT), washed as before, incubated in, 300 nM DAPI/PBS solution for […] at RT, washed as before, and mounted onto slides.

[3] = test system: CHO-K1 cells; assay: as above; format: cell-based, Chinese hamster; conditions: 10 μM, CM and SF (FIGS. 30-32)
Experimental: as §4, §5

[4] = test system: bEnd.3 cells; assay: Flow cytometry analysis of FITC-labelled peptide cell binding/uptake; format: cell-based, mouse; conditions: FIG. 36
Experimental: as §1, §2, §3

[5] = test system: CHO or bEnd.3 cells; assay: Live confocal microscopy screen for cell internalization, cell line not specified per result; format: cell-based; conditions: for cellular uptake by confocal microscopy: 10 μM (FIG. 20)
Experimental: (§6) bEnd.3 and CHO-K1 cells were seeded at 3×10^4/well and 5×10^4/well respectively, on 8-well Lab-Tek H chambered coverglass slides. Slides were incubated for 24 h prior to analysis at 37° C. at 5% CO2. Wells were washed twice with medium containing 1% FBS, and 5-10 μM FITC-labeled peptide in 1% FBS media was added to wells, and cells were imaged at 30 and 60 minutes later.
(§7) Briefly, bEnd.3 and CHO cells were seeded at subconfluent density (˜50%) on 8-well chambered coverglasses, incubated for 24 hrs, washed with culture medium containing 1% FBS and then incubated with 5-30 μM of labelled peptide for 1 hr in culture media containing 1% FBS before being imaged using confocal microscopy.

[6] = test system: primary cortical neuronal cultures; assay: Glutamate excitotoxicity assay, neuroprotection by CPP-PYC36 fusions; format: cell-based; conditions: PYC36 alone, data not shown
Experimental: Peptides ID 4052 (SEQ ID NO: 16; Table 10), Peptides ID 4052a (SEQ ID NO: 26; Table 10), and TAT peptide ([…]; SEQ ID NO: 28) were each produced as fusions to the neuroprotective peptide PYC36 ([…]; SEQ ID NO: 29) described in WO 2008/034161. The fusion peptides were assayed for their ability to confer survival on primary cortical neuronal cultures by glutamate excitotoxicity assay as described in Example of WO 2008/034161.

[7] = test system: CHO-K1 cells; assay: Live confocal microscopy of FITC-labelled peptides; format: cell-based, Chinese hamster; conditions: 60 minutes (FIG. 18)
Experimental: as §6, §7

[8] = test system: cells; assay: Flow cytometry optimisation with FITC-labelled PYC38 (+/-TAT); format: cell-based; conditions: FITC-labelled peptide
Experimental: as §2, §3

[9] = test system: endosome; conditions: Sugita et al. 2008; cited from earlier work

| Substance | internalisation into bEnd.3 cells, fluorescent microscopy [2] | internalisation into CHO-K1 cells, fluorescent microscopy [3] | cellular uptake into bEnd.3 cells measured using FITC [4] | cellular uptake into CHO-K1 cells measured using FITC [1] | also measured |
| --- | --- | --- | --- | --- | --- |
| 0045 (PFLKRVPACLRLRR) [compound 0045] | evidence for internalisation of the peptide into bEnd.3 cells | evidence for internalisation of the peptide into CHO-K1 cells |  |  | cellular uptake into CHO-K1 [1]: high uptake |
| 4052 (WGCCGRSSRRRRTR) [compound 4052] |  |  | high uptake | high uptake |  |
| 5008 (PYSRPHVQLWYPNRESCRSLIRSLGP) [compound 5008] | evidence for internalisation of the peptide into bEnd.3 cells | evidence for internalisation of the peptide into CHO-K1 cells | high uptake | high uptake |  |
| 9170 (RCGRASRCRVRWMRRRRI) [compound 9170] | evidence for internalisation of the peptide into bEnd.3 cells | evidence for internalisation of the peptide into CHO-K1 cells | high uptake | high uptake | cellular uptake into CHO-K1 [1]: high uptake; cellular uptake by confocal microscopy [5]: evidence for cellular uptake |
| GLQGRRRQGYQSIKP (GLQRRRQGYQSIKP) [PYC36, neuroprotective peptide described in WO 2008/034161] |  |  |  |  | neuroprotective activity following glutamate induced neural damage [6]: negligible neuroprotective activity |
| RFRCGRRKWQIGS [Peptide ID 9072, arginine-rich TAT-like CPP from non-coding region] |  |  |  |  | uptake into CHO-K1 cells, flow cytometry curve ([1]; 10 μM, 37° C., vs PYC38-TAT positive control (FIG. 15)): largely overlaps with that for the positive control; cellular uptake by confocal microscopy [5]: evidence for cellular uptake |
| WTISSRRRKVNRAC [Peptide ID 4063, arginine-rich TAT-like CPP from non-coding region] |  |  |  |  | uptake into CHO-K1 cells by confocal microscopy ([7]; 10 μM peptide): evidence of the uptake; uptake into CHO-K1 cells by confocal microscopy ([7]; 30 μM peptide): uptake |
| rhaplarGswrGqpqqGpqrrGqlGG [PYC38, reference compound] |  |  |  |  | uptake into CHO-K1 cells by confocal microscopy ([7]; 5 μM peptide): no detectable evidence of uptake; level of cell binding/internalization, PYC38-TAT versus PYC38 [8]: significantly lower; uptake by confocal microscopy, control peptides ([5]; 5-30 μM labelled peptide, 1 hr): no uptake |
| transferrin: named in cited endosome escape study |  |  |  |  | efficiency of endosome escape [9]: low |
